According to patent publication US11826432B2, “Linkers, conjugates and applications thereof” (priority 2021, dated 2023):

Assays:
[1] = test system: HER2 high-expressing cancer cells SK-BR-3; assay: Cytotoxicity assay (CellTiter-Glo cell viability), SK-BR-3; type: cell-based; conditions: SK-BR-3, 120 h treatment
Experimental: (§1) Cytotoxicity assays were performed using HER2 high-expressing cancer cells SK-BR-3 (FIG. 1) and NCI-N87 (FIG. 2), HER2 low-expressing cancer cells CFPAC-1 (FIG. 3) and NCI-H2110 (FIG. 4), as well as a HER2 negative cell line MDA-MB-468 (FIG. 5) to analyze the effect of conjugates on tumor cell proliferation. […] In brief, 3000 to 5000 cells were plated in 96-well plates, and cells were able to attach overnight. Cells were treated with indicated drugs with various concentrations for 120 h. Cell viabilities were examined by CellTiter-Glo® Luminescent Cell Viability Assay, and percentage of cell viability was calculated.

[2] = test system: HER2 high-expressing cancer cells NCI-N87; assay: Cytotoxicity assay (CellTiter-Glo cell viability), NCI-N87; type: cell-based; conditions: NCI-N87, 120 h treatment
Experimental: as §1

Molecule CC[C@@]1(O)C(=O)OCc2c1cc1n(c2=O)Cc2c-1nc1cc(F)c(C)c3c1c2[C@@H](NC(=O)CO)CC3 [compound 10] has an IC50 [1] of 1.47 nM and an IC50 [2] of 4.68 nM.
